Measurements from a melting point compilation (Tetko et al.; mined from patent text by program, amines drawn as free bases though some values may be those of a salt).

Row | SMILES | melting point [°C]
1 | Cc1cc(C2=NOC(c3cc(Cl)cc(Cl)c3)(C(F)(F)F)C2)ccc1C(=O)Nc1ccc(Cl)cn1 (configuration not stated) | 129 to 132
2 | CC(C)(C(=O)O)C1(Br)OC2=CC=CC2=CC1c1ccccc1 (configuration not stated) | 183 to 196
3 | OCCCc1ccc(Nc2ncc(-c3ccccc3)s2)nc1 | 153 to 154
4 | CCOC(=O)C(=O)Nc1nc(C(C)C)cs1 | 54 to 57
5 | COC(=O)CC1C(=O)Nc2cc(S(N)(=O)=O)sc2S1(=O)=O (configuration not stated) | 223 to 225
6 | Sc1nc2ncccc2[nH]1 | > 250
7 | Cc1sc(C2=NOC(c3cc(Cl)cc(Cl)c3)(C(F)(F)F)C2)cc1Br (configuration not stated) | 110 to 112
8 | FC(F)(F)CNC(=S)NCc1ccc(OC(F)(F)F)cc1 | 94.7 to 96.4
9 | COc1c(Br)ccc2s[nH]c(=O)c12 | 197 to 198
10 | c1cc2c(cc1OCC1CCCCC1)CCCCC2 | 62 to 63
11 | O=C1c2ccccc2C(=O)N1Cc1cnc(Cl)s1 | 108 to 109
12 | COC1=NC(=O)N(C2CCCCC2)S(=O)(=O)N1 | 173 to 177
13 | CCCCCCOc1cccc2c(OCCCCCC)cccc12 | 92 to 93
14 | Cc1sc(-c2ccccc2)nc1COc1ccc(COc2ncccc2CC(=O)O)cc1 | 128 to 129
15 | CC(C)c1nn(-c2ncc(C#N)cn2)cc1CCCO | 153 to 154
16 | C=C(Cl)CC1(C)Cc2cc(O)c(Cl)c(Cl)c2C1=O (configuration not stated) | 183
17 | O=C(OC1COC(n2cc(CCN3C(=O)c4ccccc4C3=O)c(=O)[nH]c2=O)C(OC(=O)c2ccccc2)C1OC(=O)c1ccccc1)c1ccccc1 (configuration not stated) | 124
18 | CCC(O)P(=O)(OCc1ccccc1)OCc1ccccc1 (configuration not stated) | 81 to 82
19 | CC(C)(C)OC(=O)N1CCN(c2ccnc3sc(C(N)=O)c(N)c23)CC1 | 198 to 203
20 | O=C(O)CC1Sc2ccc([N+](=O)[O-])cc2CN(CCc2ccccc2)C1=O (configuration not stated) | 210 to 214
21 | CCOC(=O)C(C)(C)Oc1ccc(C=CC(=O)c2ccccc2)cc1 | 68 to 70
22 | O=C(C=Cc1ccc(Cl)cc1)C(CC=Cc1ccccc1)c1ccccc1 (configuration not stated) | 92 to 95
23 | CC(C)(C)Cc1ccc(Oc2ccc(C(O)c3ccncc3)cc2)cc1 (configuration not stated) | 120 to 122
24 | C[C@@H](F)c1nc(N)nc(N[C@H]2c3ccccc3C[C@@H]2C)n1 | 146 to 150

Row | SMILES | melting point [°C]
25 | O=c1[nH]c2cc(F)c(F)cc2cc1P(=O)(O)O | 245 to 252
26 | C=CCN(CC=C)C(=O)n1cnc(S(=O)C(C)C)n1 (configuration not stated) | 32 to 34
27 | CC(=O)N1CC(CCN2CC=C(c3ccccc3)CC2)c2cc3c(cc21)OCO3 (configuration not stated) | 90 to 91
28 | O=c1c2cc(F)c(F)cc2nc(C(S)c2ncnc3[nH]cnc23)n1-c1ccccc1Cl (configuration not stated) | 208
29 | O=C(NC1N=C(c2ccccc2F)c2ccccc2N(CC(=O)N2CC3CCC(CC3)C2)C1=O)c1cccc(O)c1 (racemic) | > 250
30 | COC(=O)c1ccccc1C(=O)NN(C(=S)Nc1ccccc1)C(C)C | 145 to 147
31 | CCCCCCCCNC(=O)N(CCCCCSc1nc(-c2ccccc2)c(-c2ccccc2)[nH]1)c1ccccc1 | 74 to 76
32 | O=S(=O)(N=CN1CCOCC1)c1nc(-c2ccccc2)ns1 | 185 to 187
33 | CC(C)(C(=O)O)N1COC(C(F)F)=C(c2ccccc2)C1=O | 149 to 151
34 | NS(=O)(=O)c1cc2c(s1)S(=O)(=O)CC(O)C2O (configuration not stated) | 182 to 185
35 | NC(=O)c1[nH]cnc1OC(=O)C=Cc1cccc([N+](=O)[O-])c1 | 197
36 | Cn1nncc1COc1nn2c(-c3ccccc3)nnc2cc1-c1ccccc1 | 190 to 193
37 | CCOC(=O)CC1(c2ccccc2)CNC(=O)C1 (configuration not stated) | 49 to 51
38 | Cc1cc(C(=O)O)cc(C)c1N=C1NCCN1 | 116 to 117
39 | CCSc1nnnn1-c1ccc(Cl)cc1F | 76 to 79
40 | CCOC(=O)c1cc(=O)c(C(=O)c2ccccc2)co1 | 84 to 86
41 | O=C(O)c1cccc(CCl)c1 | 134 to 136
42 | O=C1NC(=O)C(Cc2ccc(OCc3nc(-c4ccccc4)cs3)cc2)S1 (configuration not stated) | 164 to 165
43 | CC(C)Nc1ncnc2cscc12 | 230
44 | CC(C)(C=O)CN1CCN(CC(C)(C)C=O)C1=O | 78 to 80
45 | C#CCN(C(C)=O)c1cccc(-c2ccnc3c(C#N)cnn23)c1 | 193 to 195
46 | CCc1ccc2c(c1)C(c1ccccc1F)=NCc1cnc(C)n1-2 | 152 to 154
47 | Nc1c2ccccc2nc2c(=O)[nH][nH]c(=O)c12 | 167 to 168

Second part, the compound after the results:

Row | melting point [°C] | SMILES
48 | 113 to 115 | Cc1ccccc1NC(=O)c1c(C)nn(C)c1N
49 | 188 | CCCCN1CC(=O)N2[C@@H](c3ccc(NS(C)(=O)=O)cc3)c3[nH]c4ccccc4c3C[C@@H]2C1=O (relative stereo)
50 | 218 to 220 | CC1(C)CCC(C)(C)c2cc(S(=O)(=O)c3ccc(C(=O)O)cc3)ccc21
51 | 257 | NS(=O)(=O)c1cccc(NC(=O)c2cnn3c(C(F)(F)F)cc(-c4ccc(OC(F)(F)F)cc4)nc23)c1
52 | 264 to 267 | Cn1cc(-c2cc3cccnc3[nH]2)c2ccc(C(=O)NCCO)cc21
53 | 109 to 110 | CCOC(=O)c1sc(OCC)c2c1CCc1cnn(C)c1-2
54 | 226 to 228 | CCOC(=O)C(C)(C)Sc1ccc(NCCn2c(C)nc3ccccc3c2=O)cc1
55 | 160 to 162 | COCCOc1ccccc1S(=O)(=O)NC(=O)Nc1nc(C)cc(OC)n1
56 | 272 to 273 | NC(=NO)c1cccc(-c2nc3sccn3c2-c2ccnc(NC3CCCN(S(=O)(=O)c4ccc(Cl)cc4)C3)n2)c1 (configuration not stated)
57 | 127 to 129 | COC(=O)COc1ccc(OCC2CCN(c3ccncc3)CC2)cc1
58 | 136 to 137 | COC(=O)c1cc(C(=O)N2CCCOCC2)c2cc(Cc3ccc(F)cc3)cnc2c1O
59 | 79 to 85 | COc1cccc2c1CC(C(=O)NCCOc1ccc(C(=O)OC(C)(C)C)cc1)N2S(=O)(=O)c1ccc(-c2ccc(F)cc2Cl)cc1 (configuration not stated)
60 | 178 to 180 | CC(=O)Oc1c(Cl)cc(Cl)cc1C1(OC(C)=O)C(=O)c2ccccc2C1=O
61 | 247 to 249 | O=C1CCC(N2Cc3c(OCc4cccc(CN5CCOCC5)c4)cccc3C2=O)C(=O)N1 (configuration not stated)
62 | 171 to 173 | O=C(O)CCCCCOc1c(Cl)cc(NC(=O)NC(=O)c2ccccc2Cl)cc1Cl
63 | 195 to 196 | CCOC(=O)c1ncc2[nH]c3cccc(CN4CCOCC4)c3c2c1COC
64 | 168 to 169 | Cc1cccc(-c2n[nH]cc2-c2ccc(F)c(-c3cn(C)cn3)c2)n1
65 | 180 to 182 | COc1cc2cc(CO)c(CO)c(C)c2cc1OC
66 | 64 | O=C1NC(=O)C(Cc2ccc(OCCN3c4ccccc4Sc4ccc(C(F)(F)F)cc43)cc2)S1 (configuration not stated)
67 | 108 to 110 | COC(=O)C(C)(C)Cc1ccc2cc(CC(C)(C)C(=O)OC)ccc2c1
68 | 90 to 91 | O=C1N[C@H](Cc2cccc(OC(F)(F)C(F)F)c2)[C@H](c2ccc(Oc3ccccc3)cc2)O1 (racemic)
69 | 261 | Cc1cc(-c2cc(C(F)F)n3ncc(C(=O)Nc4cccc(S(=O)(=O)N5CCOCC5)c4)c3n2)ccc1C(F)(F)F
70 | > 300 | COc1ccc(-c2cc(=O)[nH]c(=O)[nH]2)cc1OC
71 | 227 | O=C(O)C1(CSc2ccc3oc(-c4ccncc4)cc3c2)CCOCC1
72 | 159 to 162 | Cc1cc(-c2ccc(OC3SCC(O)C(O)C3O)c(F)n2)ccn1 (configuration not stated)

Row | melting point [°C] | SMILES
73 | 120 to 122 | CN1CCN(C(=O)[C@H](CCC(N)=O)NC(=O)CCc2ccc(OCc3ccccc3)cc2OCc2ccccc2)CC1
74 | 100 to 101 | CNc1noc(C(C)c2cccc(C(=O)c3ccccc3)c2)n1 (configuration not stated)
75 | 251 to 252 | Cc1nnc(-c2cnc3occ(-c4ccc(S(C)(=O)=O)cc4)c3c2)o1
76 | 247 to 248 | O=C(C=Cc1ccc(CNC2CCCCC2)cc1)Nc1ccc(-c2ccc(Cl)cc2)cc1
77 | 212 to 214 | CC12CCC(C1)C1(C)Oc3ccc(CCOc4ccc(C(=O)O)c(O)c4)cc3C21C (configuration not stated)
78 | 159 to 165 | CO[C@@H]1CC[C@@H](NC(N)=O)c2ccccc21 (relative stereo)
79 | 211 to 212 | CC1(C)OC(=O)Nc2ccc(-c3ccc(F)c(Cl)c3)cc21
80 | 95 to 95.5 | CCOC(=O)[C@@H](Cc1ccc2ccc(C#N)cc2c1)c1ccc(O[C@H]2CCN(Cc3ccccc3)C2)cc1
81 | 178 to 180 | Cc1c(C#N)cc(C(C)(C)C)c(O)c1C(=O)Nc1ccc(S(=O)c2ccc(Br)cc2)cc1C(F)(F)F (configuration not stated)
82 | 159 to 161 | O=C(Cc1ccccc1Br)NC1CCC1
83 | 240 | CN1CCN(C(=O)OC2C3=C(SCCS3)C(=O)N2c2ccc3c(Cl)ccnc3n2)CC1 (configuration not stated)
84 | 186 to 187 | Cc1c(-c2ccccc2)oc2c(S(=O)(=O)NCCO)cccc2c1=O
85 | 177 to 179 | COc1cc(OC)nc(NC(=O)NS(=O)(=O)c2ccccc2C2CO2)n1 (configuration not stated)
86 | 96 to 98 | COc1cc(C(C)=O)ccc1NCCCN1CCC(c2noc3cc(F)ccc23)CC1
87 | 170 to 174 | NS(=O)(=O)c1cc(CCNC(=O)/C=C/c2cccs2)ccc1OCCc1ccccc1
88 | 159 to 160 | CCN(CC)C(=O)Cc1cccc(Oc2ccccc2F)c1N
89 | 61 | N#CCOc1cccc2c1c1cccc3c1n2C(c1ccccc1)CO3 (configuration not stated)
90 | 174 to 176 | CCCOc1ccccc1-c1nc2nc(NCC(=O)OCC)ncc2c(=O)[nH]1
91 | 179 to 184 | COc1ccc(C2=NN(C3CCN(S(=O)(=O)c4ccc(C)cc4)CC3)C(=O)CC2)cc1OC
92 | 158 to 159 | Nc1ccc2c(c1)NC(=O)C(CCCN1CCN(c3ccc(F)cc3)CC1)O2 (configuration not stated)
93 | 188 to 189 | CN1CC(=O)N2c3ccccc3Cn3c(cc4ccccc43)C2C1=O (configuration not stated)
94 | 161 to 163 | CC[C@H]1c2cccn2-c2cc(F)c(F)cc2N1S(=O)(=O)c1ccc(O)c(C)c1
95 | 135 to 136 | Cc1cc(Oc2ccc(C(=O)C=CC(=O)O)cc2)ccc1Cl
96 | 155 to 157 | O=CN(O)C(CCc1ccccc1)CS(=O)(=O)N1CCN(c2cc(Cl)ncn2)CC1 (configuration not stated)
97 | 120 to 124 | COc1cccc(C=CCN2CCc3nc(N)sc3CC2)c1
